Test results taken from the Kinase Knowledgebase extract (Sharma et al. 2016).

Target: PIK3CG (human) (UniProt P48736)
Experiment: Inhibition of PIK3CG Kinase Activity

Sequence of PIK3CG (human) (P48736 whole entry, looked up): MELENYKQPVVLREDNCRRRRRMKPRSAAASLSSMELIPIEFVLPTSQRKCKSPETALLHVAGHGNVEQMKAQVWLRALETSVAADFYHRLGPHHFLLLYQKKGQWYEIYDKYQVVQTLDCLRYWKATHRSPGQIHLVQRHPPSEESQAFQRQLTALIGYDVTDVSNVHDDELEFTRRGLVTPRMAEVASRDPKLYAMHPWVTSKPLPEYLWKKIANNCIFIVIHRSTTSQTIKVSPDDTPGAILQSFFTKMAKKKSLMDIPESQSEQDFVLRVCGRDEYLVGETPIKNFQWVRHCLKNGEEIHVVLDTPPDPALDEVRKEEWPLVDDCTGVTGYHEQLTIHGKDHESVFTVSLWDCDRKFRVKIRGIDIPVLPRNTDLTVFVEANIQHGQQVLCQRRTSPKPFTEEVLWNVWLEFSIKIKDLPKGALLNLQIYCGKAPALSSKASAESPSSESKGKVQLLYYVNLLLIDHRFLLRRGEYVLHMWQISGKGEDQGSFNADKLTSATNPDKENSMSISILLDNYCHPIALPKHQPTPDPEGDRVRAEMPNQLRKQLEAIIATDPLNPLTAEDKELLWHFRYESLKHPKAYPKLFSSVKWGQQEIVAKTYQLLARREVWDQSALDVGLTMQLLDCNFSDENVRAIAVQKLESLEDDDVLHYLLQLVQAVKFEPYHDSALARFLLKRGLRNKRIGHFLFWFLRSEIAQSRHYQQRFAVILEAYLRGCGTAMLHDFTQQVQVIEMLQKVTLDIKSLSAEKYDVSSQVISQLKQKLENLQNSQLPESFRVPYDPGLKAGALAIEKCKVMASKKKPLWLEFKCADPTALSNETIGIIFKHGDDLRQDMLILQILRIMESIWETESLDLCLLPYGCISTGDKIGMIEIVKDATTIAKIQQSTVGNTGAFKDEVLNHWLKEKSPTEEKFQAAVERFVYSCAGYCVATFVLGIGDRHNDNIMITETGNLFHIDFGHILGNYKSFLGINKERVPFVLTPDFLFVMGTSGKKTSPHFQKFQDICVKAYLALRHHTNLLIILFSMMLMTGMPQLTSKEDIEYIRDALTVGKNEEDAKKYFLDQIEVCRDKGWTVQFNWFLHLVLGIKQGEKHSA

Row | SMILES | Ki [nM]
1 | Cc1cc(-c2cncc(C(=O)N3CCC[C@@H]3C)c2)nc2c1C(=O)N(c1cnn(CC(F)(F)F)c1)C2(C)C | 100 to 490
2 | COc1cc(-c2ccc3c(n2)CN(c2ccc(N4CCOCC4)nc2)C3=O)cnc1OC | 100 to 490
3 | COc1cc(-c2ccc3c(c2)CN(c2cccc(C(C)=O)c2)C3=O)cnc1OC | 100 to 490
4 | COc1cc(-c2ccc3c(n2)CN(c2cnn(CCn4nc(C)cc4C)c2)C3=O)cnc1OC | 100 to 490
5 | COc1cc(-c2ccc3c(c2)CN(c2nncs2)C3=O)cnc1OC | 100 to 490
6 | Cc1cc(-c2cncc(CO)c2)nc2c1C(=O)N(c1cc[nH]n1)C2 | 100 to 490
7 | COc1cncc(-c2cc(C)c3c(n2)CN(c2cn(CC(F)(F)F)cn2)C3=O)c1 | < 100
8 | CCOc1cncc(-c2cc(C)c3c(n2)CN(c2cnn(CC(F)(F)F)c2)C3=O)c1 | < 100
9 | CCn1cc(N2Cc3nc(-c4cccc(OC)c4)cc(C)c3C2=O)cn1 | < 100
10 | Cc1cc(-c2cncc(C(=O)NCC3CC3)c2)nc2c1C(=O)N(c1cnn(CC(F)(F)F)c1)C2(C)C | < 100
11 | COc1ncc(-c2cc(C)c3c(n2)C(C)N(c2cnn(CC(F)F)c2)C3=O)cc1C(=O)NCC(F)F (stereo not given) | < 100
12 | COc1ccc(-c2ccc3c(n2)CN(c2cnn(CC#N)c2)C3=O)c(C)n1 | 100 to 490
13 | COc1ncc(-c2ccc3c(n2)C(C)N(c2cnn(CC(F)(F)F)c2)C3=O)cc1OC(F)F (stereo not given) | < 100
14 | COc1cc(-c2cc(C)c3c(n2)C(OC2CCC2)N(c2cnn(CC(F)(F)F)c2)C3=O)cnc1OC (stereo not given) | < 100
15 | Cc1cc(-c2cnc(C)c(O)c2)nc2c1C(=O)N(c1cnn(CC(F)(F)F)c1)C2 | < 100
16 | Cc1cc(-c2cncc(OC(F)F)c2)nc2c1C(=O)N(c1cnn(C[C@H](C)O)c1)C2 | < 100
17 | CCOc1ncc(-c2cc(C)c3c(c2)C(C)N(c2cnn(CC(F)(F)F)c2)C3=O)cc1OC (stereo not given) | < 100
18 | CCOCCCOc1ncc(-c2cc(C)c3c(n2)CN(c2cnn(CC(F)(F)F)c2)C3=O)cc1OC | 100 to 490
19 | Cc1cc(-c2cncc(OCC(F)(F)F)c2)nc2c1C(=O)N(c1cnn(CC#N)c1)C2(C)C | < 100
20 | COc1cc(-c2cc(C)c3c(n2)CN(c2cncc(S(C)(=O)=O)c2)C3=O)cnc1OC | < 100
21 | COc1cc(-c2ccc3c(n2)[C@@H](C)N(c2cn(CC(F)(F)F)cn2)C3=O)cnc1OC | < 100
22 | COc1cc(-c2ccc3c(c2)CN(c2ccn(CC(N)=O)n2)C3=O)cnc1OC | 100 to 490
23 | CCn1ccc(N2C(=O)c3c(C)cc(-c4cncc(OC(F)F)c4)nc3[C@@H]2C)n1 | < 100
24 | Cc1cc(-c2ccc(F)c(O)c2)nc2c1C(=O)N(c1cnn(CC(F)(F)F)c1)C2 | < 100
25 | Cc1cc(-c2cncc(OCC(F)F)c2)nc2c1C(=O)N(c1cnn(CC(F)(F)F)c1)C2(C)C | < 100
26 | CCOc1cncc(-c2cc(C)c3c(n2)[C@@]2(CCOC2)N(c2cnn(CC(F)(F)F)c2)C3=O)c1 | < 100

Row | SMILES | Ki [nM]
27 | COc1cc(-c2ccc3c(n2)[C@H](C)N(c2cn(CC(F)(F)F)cn2)C3=O)cnc1OC | < 100
28 | COc1cc(-c2cc(C)c3c(n2)CN(c2cncc(CC#N)c2)C3=O)cnc1OC | < 100
29 | CC(C)(C#N)n1cc(N2Cc3nc(-c4cncc(OC(F)F)c4)ccc3C2=O)cn1 | 100 to 490
30 | COc1cc(-c2ccc3c(n2)CN(c2cnn(Cc4cc(C)no4)c2)C3=O)cnc1OC | < 100
31 | COc1cc(-c2cc(C)c3c(n2)C(C)N(c2cnn(CC(F)(F)F)c2)C3=O)cnc1OC(C)C (stereo not given) | < 100
32 | COc1cc(-c2cc(N(C)C)c3c(n2)CN(c2cnn(CC#N)c2)C3=O)cnc1OC | < 100
33 | CC(=O)Nc1cncc(-c2cc(C)c3c(n2)C(C)(C)N(c2cnn(CC(F)(F)F)c2)C3=O)c1 | < 100
34 | CCCOc1cc(-c2cc(C)c3c(n2)CN(c2ccn(CC)n2)C3=O)cnc1OC | < 100
35 | CC[C@H]1c2nc(-c3cnc(OC)c(OC)c3)ccc2C(=O)N1c1cnn(CC(F)(F)F)c1 | 100 to 490
36 | COCCOc1ncc(-c2ccc3c(n2)CN(c2cnn(CC#N)c2)C3=O)cc1OC | < 100
37 | COc1cc(-c2cc(C)c3c(n2)C(OC(C)=O)N(c2cnn(CC(F)(F)F)c2)C3=O)cnc1OC (stereo not given) | < 100
38 | CCn1ccc(N2C(=O)c3c(C)cc(-c4cncc(OC)c4)nc3C2C)n1 (stereo not given) | < 100
39 | CCOc1ncc(-c2cc(C)c3c(n2)C(OC)N(c2cnn(CC(F)(F)F)c2)C3=O)cc1OC (stereo not given) | < 100
40 | Cc1cc(-c2cncc(C(=O)O)c2)nc2c1C(=O)N(c1cnn(CC(F)(F)F)c1)C2C (stereo not given) | < 100
41 | CCOc1ncc(-c2cc(C)c3c(n2)C2(CCCO2)N(c2cnn(CC(F)(F)F)c2)C3=O)cc1OC (stereo not given) | < 100
42 | COc1cncc(-c2cc(C)c3c(n2)C(C)N(c2ccn(CC(C)(C)O)n2)C3=O)c1 (stereo not given) | < 100
43 | Cc1cc(-c2cncc(S(=O)(=O)NC(C)C)c2)nc2c1C(=O)N(c1cnn(CC(F)(F)F)c1)C2(C)C | < 100
44 | CCn1cc(N2Cc3nc(-c4cnc(OC)c(OCC(F)F)c4)cc(C)c3C2=O)cn1 | < 100
45 | COc1cc(-c2cc(C)c3c(n2)[C@@](C)(O)N(c2cnn(CC(F)(F)F)c2)C3=O)cnc1OC | < 100
46 | COc1cc(-c2cc(C)c3c(n2)CN(c2nc(C)cs2)C3=O)cnc1OC | < 100
47 | COc1cc(-c2ccc3c(n2)C(C)N(c2ccn(CC(F)(F)F)n2)C3=O)cnc1OC (stereo not given) | < 100
48 | COCCOc1ncc(-c2cc(C)c3c(n2)CN(c2cnn(CC#N)c2)C3=O)cc1OC | < 100
49 | COc1cc(-c2ccc3c(c2)CN(c2cn(C)nn2)C3=O)cnc1OC | < 100
50 | COc1cc(-c2cc(C)c3c(n2)CN(c2cnc(C(C)(C)O)c(F)c2)C3=O)cnc1OC | < 100
51 | Cc1cc(-c2cccnc2)nc2c1C(=O)N(c1cnn(CC#N)c1)C2 | < 100

Results, then the compound that gave them:

Row | Ki [nM] | SMILES
52 | < 100 | COc1cc(-c2ccc3c(c2)CN(c2cn[nH]c2)C3=O)cnc1OC
53 | < 100 | COc1cc(-c2cc(OC)c3c(n2)CN(c2cnn(CC#N)c2)C3=O)cnc1OC
54 | < 100 | COc1cncc(-c2cc(C)c3c(n2)C2(CN(C(=O)OC(C)(C)C)C2)N(c2cnn(CC(F)(F)F)c2)C3=O)c1
55 | < 100 | COc1ncc(-c2cc(C)c3c(n2)C(C)(C)N(c2cnn(CC(F)(F)F)c2)C3=O)cc1C(=O)N[C@H]1CCOC1
56 | < 100 | CCOc1cncc(N2Cc3nc(-c4cnc(OC)c(OC)c4)cc(C)c3C2=O)c1
57 | < 100 | Cc1cc(-c2cncc(S(=O)(=O)N(C)C)c2)nc2c1C(=O)N(c1cnn(CC(F)(F)F)c1)C21CCOC1 (stereo not given)
58 | < 100 | COc1cc(-c2cc(C)c3c(n2)CN(c2ccsc2)C3=O)cnc1OC
59 | < 100 | COc1cc(-c2ccc3c(n2)[C@@H](C)N(c2cccc(C(C)(C)C#N)n2)C3=O)cnc1OC
60 | < 100 | COc1cc(-c2ccc3c(n2)CN(c2cnn([C@H](C)C#N)c2)C3=O)cnc1OC
61 | < 100 | COc1cc(-c2ccc3c(n2)C(C)N(c2ccn(C[C@H](C)O)n2)C3=O)cnc1OC (stereo not given in full)
62 | < 100 | Cc1ccc(-c2cc(C)c3c(n2)CN(c2cnn(CC#N)c2)C3=O)cn1
63 | < 100 | COc1cc(-c2cc(C)c3c(n2)CN(c2cc(C)[nH]n2)C3=O)cnc1OC
64 | < 100 | Cc1cc(-c2cncc(S(=O)(=O)N(C)C)c2)nc2c1C(=O)N(c1cnn(CC(F)(F)F)c1)C2(C)C
65 | < 100 | Cc1cc(-c2cncc(OCC(F)(F)F)c2)nc2c1C(=O)N(c1cnn(CC(F)(F)F)c1)[C@H]2C
66 | < 100 | COc1cc(-c2ccc3c(c2)CN(c2ccn(C)n2)C3=O)cnc1OC
67 | < 100 | Cc1cc(-c2cncc(C(=O)NC(C)(C)C)c2)nc2c1C(=O)N(c1cnn(CC(F)(F)F)c1)C2(C)C
68 | < 100 | COc1cc(-c2ccc3c(n2)CN(c2cnn(C(CO)C(F)(F)F)c2)C3=O)cnc1OC (stereo not given)
69 | < 100 | COc1cc(-c2ccc3c(n2)CN(c2cn(CC(F)(F)F)cn2)C3=O)cnc1OC
70 | < 100 | COc1cc(-c2cc(C)c3c(n2)CN(c2nc(CO)cs2)C3=O)cnc1OC
71 | < 100 | COc1cc(-c2ccc3c(n2)CN(c2ccc(OCC4OCCO4)nc2)C3=O)cnc1OC
72 | < 100 | COCn1cc(N2Cc3nc(-c4cnc(OC)c(OC)c4)cc(C)c3C2=O)cn1
73 | < 100 | Cc1cc(-c2cncc(OCC(F)(F)F)c2)cc2c1C(=O)N(c1cnn(CC(F)(F)F)c1)C2

Row | Ki [nM] | SMILES
74 | < 100 | COc1cc(-c2cc(C)c3c(n2)[C@@](C)(OC)N(c2cnn(CC(F)(F)F)c2)C3=O)cnc1OC
75 | < 100 | Cc1cc(-c2cncc(S(C)(=O)=O)c2)nc2c1C(=O)N(c1cnn(CC(F)(F)F)c1)C2(C)C
76 | < 100 | COCCOc1ccc(N2Cc3nc(-c4cnc(OC)c(OC)c4)ccc3C2=O)cn1
77 | < 100 | COc1cc(-c2cc(Cl)c3c(c2)CN(c2cnn(CC#N)c2)C3=O)cnc1OC
78 | < 100 | COc1cc(-c2cc(C)c3c(n2)CN(c2cc(C)n(Cc4ccccn4)n2)C3=O)cnc1OC
79 | < 100 | Cc1cc(-c2cncc(OC(F)F)c2)nc2c1C(=O)N(c1cnn(CC(F)(F)F)c1)C2
80 | < 100 | Cc1cc(-c2cnc(C)c(OCC(F)(F)F)c2)nc2c1C(=O)N(c1ccn([C@H]3CCOC3)n1)C2
81 | < 100 | COc1cc(-c2ccc3c(c2)CN(c2ccn(CC#N)n2)C3=O)cnc1OC
82 | < 100 | COc1cc(-c2cc(C)c3c(n2)CN(c2cnn(C(C)(C)C#N)c2)C3=O)cnc1OC
83 | < 100 | COc1cc(-c2ccc3c(c2)CN(c2cccc(C(N)=O)c2)C3=O)cnc1OC
84 | < 100 | COc1cc(-c2ccc3c(n2)[C@H](C)N(c2cnn(CC#N)c2)C3=O)cnc1OC
85 | < 100 | COc1cc(-c2cc(C)c3c(n2)CN(c2ccc(OCC(F)(F)F)nc2)C3=O)cnc1OC
86 | < 100 | COc1cncc(-c2cc(C)c3c(n2)C(C)N(c2cc[nH]n2)C3=O)c1 (stereo not given)
87 | < 100 | COc1cc(-c2cc(C)c3c(n2)C(C)N(c2cnn(C[C@H](C)O)c2)C3=O)cnc1OC (stereo not given in full)
88 | < 100 | COc1cc(-c2ccc3c(n2)C(C)N(c2ccnc(CC#N)c2)C3=O)cnc1OC (stereo not given)
89 | < 100 | CCc1cncc(-c2cc(C)c3c(n2)C(C)(C)N(c2cnn(CC(F)(F)F)c2)C3=O)c1
90 | < 100 | COc1cncc(-c2cc(C)c3c(n2)[C@@H](OC)N(c2cnn(CC(F)(F)F)c2)C3=O)c1
91 | < 100 | CCn1ccc(N2C(=O)c3c(C)cc(-c4cncc(OCC(F)F)c4)nc3[C@H]2C)n1
92 | < 100 | CCn1ccc(N2Cc3nc(-c4cncc(OC(F)F)c4)cc(C)c3C2=O)n1
93 | < 100 | COc1cc(-c2ccc3c(n2)CN(c2cnn(CC4CNC(=O)O4)c2)C3=O)cnc1OC (stereo not given)
94 | < 100 | Cc1cc(-c2cncc(F)c2)nc2c1C(=O)N(c1cnn(CC#N)c1)C2
95 | < 100 | CCn1cc(N2Cc3nc(-c4cnc(OC)c(OCC5CC5)c4)cc(C)c3C2=O)cn1
